The EC50 is the concentration that produces a half-maximal response. Low values mean greater potency, high ones weaker potency.

This assay has as its target T1, human κ opioid receptors (Homo sapiens, UniProt P41145).
T1 construct: host or cells: CHO cells
Kind of assay: Opioid receptor function test (Lance Ultra cAMP kit, agonist activity). The assay is classed as cell-based. The settings on record: CHO cells expressing human κ opioid receptors, 10 μM forskolin, 30 minutes. The protocol: Opioid Receptor Function Test
The function activity of the compound of the present invention on κ opioid receptors was examined.
Method: Using a Lance Ultra cAMP kit (Perkin Elmer), the examination was performed according to a predetermined method. In evaluation of agonist activity, CHO cells expressing human κ opioid receptors (Catalog No. CT6606, accession No. NM_000912) and a test compound were reacted in an assay buffer (1×HSS, 5 mM HEPES, pH 7.4, 0.5 mM IBMX (isobutylmethyixanthine), 0.1% SA) in the presence of 10 μM forskolin for 30 minutes. Subsequently, a cAMP detection reagent in the kit was added. One hour later, time-resolved fluorescence measurement was performed using an EnVision plate reader (Perkin Elmer). The evaluation of the test compound was performed in a concentration range of 10^−14 to 10^−7 M for the κ opioid receptor function test.

T1 sequence (P41145 whole entry): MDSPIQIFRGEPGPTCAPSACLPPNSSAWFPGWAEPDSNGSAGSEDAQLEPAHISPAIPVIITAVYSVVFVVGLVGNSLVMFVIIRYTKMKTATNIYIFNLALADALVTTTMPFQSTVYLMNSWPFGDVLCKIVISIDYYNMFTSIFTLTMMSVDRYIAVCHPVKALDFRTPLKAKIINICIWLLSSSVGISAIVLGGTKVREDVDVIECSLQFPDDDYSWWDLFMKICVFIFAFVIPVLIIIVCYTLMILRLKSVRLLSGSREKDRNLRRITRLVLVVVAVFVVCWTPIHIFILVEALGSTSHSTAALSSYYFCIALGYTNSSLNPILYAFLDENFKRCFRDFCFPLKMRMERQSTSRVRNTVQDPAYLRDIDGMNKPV

In turn, `Oc1ccc2c(c1)[C@@]13CCN(CCc4ccccn4)CC[C@@]1(O)[C@@H](C2)N(CC1CCC1)CC3` [Example 162, (5aS,6R,11bS)-14-(cyclobutylmethyl)-3-(2-(pyridin-2-yl)ethyl)-2,3,4,5,6,7-hexahydro-6,11b-(epiminoethano)naphtho[1,2-d]azepine-5a,10(1H)-diol] displayed an EC50 of 0.39 nM.
As for `CCC1C[C@@]2(O)[C@H]3Cc4ccc(O)cc4[C@]2(CCN1C(=O)Cc1ccccn1)CCN3CC1CC1` (stereo partly drawn) [Example 347, 1-((5aS,6R,11bR)-14-(cyclopropylmethyl)-4-ethyl-5a,10-dihydroxy-1,2,5,5a,6,7-hexahydro-6,11b-(epiminoethano)naphtho[1,2-d]azepin-3(4H)-yl)-2-(pyridin-2-yl)ethan-1-one], the figure is 0.12 nM.
`Cc1cc(CC(=O)N2CC[C@]34CCN(CC5CC5)[C@H](Cc5ccc(O)cc53)[C@]4(O)CC2)ns1` [Example 168, 1-((5aS,6R,11bR)-14-(cyclopropylmethyl)-5a,10-dihydroxy-1,2,5,5a,6,7-hexahydro-6,11b-(epiminoethano)naphtho[1,2-d]azepin-3(4H)-yl)-2-(5-methylisothiazol-3-yl)ethan-1-one] registered an EC50 of 0.047 nM.
As for `O=C(Cc1cn2ccccc2n1)N1CC[C@]23CCN(CC4CC4)[C@H](Cc4ccc(O)cc42)[C@]3(O)CC1` [Example 115, 1-((5aS,6R,11bR)-14-(cyclopropylmethyl)-5a,10-dihydroxy-1,2,5,5a,6,7-hexahydro-6,11b-(epiminoethano)naphtho[1,2-d]azepin-3(4H)-yl)-2-(imidazo[1,2-a]pyridin-2-yl)ethan-1-one], the figure is 0.15 nM; as for `Cc1ccnc(CCN2CC[C@]34CCN(CC5CC5)[C@H](Cc5ccc(O)cc53)[C@]4(O)CC2)c1` [Example 105, (5aS,6R,11bS)-14-(cyclopropylmethyl)-3-(2-(4-methylpyridin-2-yl)ethyl)-2,3,4,5,6,7-hexahydro-6,11b-(epiminoethano)naphtho[1,2-d]azepine-5a,10(1H)-diol], 0.088 nM; as for `Cc1cnn(C2CC(N3CC[C@]45CCN(CC6CC6)[C@H](Cc6ccc(O)cc64)[C@]5(O)CC3)C2)c1` (single isomer, unassigned) [Example 227 (II)], 0.16 nM.
For the compound `Oc1ccc2c(c1)[C@@]13CCN(CCN4CCC(F)(F)C4)CC[C@@]1(O)[C@@H](C2)N(CC1CC1)CC3` [Example 182, (5aS,6R,11bS)-14-(cyclopropylmethyl)-3-(2-(3,3-difluoropyrrolidin-1-yl)ethyl)-2,3,4,5,6,7-hexahydro-6,11b-(epiminoethano)naphtho[1,2-d]azepine-5a,10(1H)-diol], the EC50 turned out to be 0.22 nM.
As for `Cn1nc(CC(=O)N2CC[C@]34CCN(CC5CC5)[C@H](Cc5ccc(O)cc53)[C@]4(O)CC2)cc1C(F)(F)F` [Example 36, 1-((5aS,6R,11bR)-14-(cyclopropylmethyl)-5a,10-dihydroxy-1,2,5,5a,6,7-hexahydro-6,11b-(epiminoethano)naphtho[1,2-d]azepin-3(4H)-yl)-2-(1-methyl-5-(trifluoromethyl)-1H-pyrazol-3-yl)ethan-1-one], the figure is 0.025 nM; as for `Cc1cnn(CCN2CC[C@]34CCN(CC5(C)CC5)[C@H](Cc5ccc(O)cc53)[C@]4(O)CC2)c1` [Example 221, (5aS,6R,11bS)-3-(2-(4-methyl-1H-pyrazol-1-yl)ethyl)-14-((1-methylcyclopropyl)methyl)-2,3,4,5,6,7-hexahydro-6,11b-(epiminoethano)naphtho[1,2-d]azepine-5a,10(1H)-diol], 0.034 nM.
The same measure for `O=C(CCc1ccccn1)N1CC[C@]23CCN(CC4CC4)[C@H](Cc4ccc(O)cc42)[C@]3(O)CC1` [Example 190, 1-((5aS,6R,11bR)-14-(cyclopropylmethyl)-5a,10-dihydroxy-1,2,5,5a,6,7-hexahydro-6,11b-(epiminoethano)naphtho[1,2-d]azepin-3(4H)-yl)-3-(pyridin-2-yl)propan-1-one]: 0.32 nM; for `NC(=O)c1ccc2c(c1)[C@@]13CCN(C(=O)CCn4cc(C(F)(F)F)cn4)CC[C@@]1(O)[C@@H](C2)N(CC1CC1)CC3` [Example 264, (5aS,6R,11bR)-14-(cyclopropylmethyl)-5a-hydroxy-3-(3-(4-(trifluoromethyl)-1H-pyrazol-1-yl)propanoyl)-1,2,3,4,5,5a,6,7-octahydro-6,11b-(epiminoethano)naphtho[1,2-d]azepine-10-carboxamide]: 0.29 nM.
For the compound `O=C(Cn1cc(C2CC2)cn1)N1CC[C@]23CCN(CC4CC4)[C@H](Cc4ccc(O)cc42)[C@]3(O)CC1` [Example 160, 2-(4-cyclopropyl-1H-pyrazol-1-yl)-1-((5aS,6R,11bR)-14-(cyclopropylmethyl)-5a,10-dihydroxy-1,2,5,5a,6,7-hexahydro-6,11b-(epiminoethano)naphtho[1,2-d]azepin-3(4H)-yl)ethan-1-one], it took 0.045 nM to reach a half-maximal effect (EC50). Compared with the last compound, the EC50 is about 6.4-fold lower.
The same measure for `Cc1ccnn1CCN1CC[C@]23CCN(CC4CC4)[C@H](Cc4ccc(O)cc42)[C@]3(O)CC1` [Example 52, (5aS,6R,11bS)-14-(cyclopropylmethyl)-3-(2-(5-methyl-1H-pyrazol-1-yl)ethyl)-2,3,4,5,6,7-hexahydro-6,11b-(epiminoethano)naphtho[1,2-d]azepine-5a,10(1H)-diol]: 0.15 nM; for `O=C(Cn1cc(C(F)(F)F)cn1)N1CC[C@]23CCN(CC4CC4)[C@H](Cc4ccc(O)cc42)[C@]3(O)CC1` [Example 143, 1-((5aS,6R,11bR)-14-(cyclopropylmethyl)-5a,10-dihydroxy-1,2,5,5a,6,7-hexahydro-6,11b-(epiminoethano)naphtho[1,2-d]azepin-3(4H)-yl)-2-(4-(trifluoromethyl)-1H-pyrazol-1-yl)ethan-1-one]: 0.033 nM; for `Cc1cccnc1CCN1CC[C@]23CCN(CC4CC4)[C@H](Cc4ccc(O)cc42)[C@]3(O)CC1` [Example 102, (5aS,6R,11bS)-14-(cyclopropylmethyl)-3-(2-(3-methylpyridin-2-yl)ethyl)-2,3,4,5,6,7-hexahydro-6,11b-(epiminoethano)naphtho[1,2-d]azepine-5a,10(1H)-diol]: 0.13 nM.
On to `CC(C)(C)c1cnn(CCN2CC[C@]34CCN(CC5CC5)[C@H](Cc5ccc(O)cc53)[C@]4(O)CC2)c1` [Example 149, (5aS,6R,11bS)-3-(2-(4-(tert-butyl)-1H-pyrazol-1-yl)ethyl)-14-(cyclopropylmethyl)-2,3,4,5,6,7-hexahydro-6,11b-(epiminoethano)naphtho[1,2-d]azepine-5a,10(1H)-diol], for which the EC50 stood at 0.023 nM.
As for `CCCN1CC[C@]23CCN(CCc4ccccn4)CC[C@@]2(O)[C@H]1Cc1ccc(O)cc13` [Example 159, (5aS,6R,11bS)-14-propyl-3-(2-(pyridin-2-yl)ethyl)-2,3,4,5,6,7-hexahydro-6,11b-(epiminoethano)naphtho[1,2-d]azepine-5a,10(1H)-diol], the figure is 0.77 nM; as for `Oc1ccc2c(c1)[C@@]13CCN(CCn4ccc(C(F)(F)F)n4)CC[C@@]1(O)[C@@H](C2)N(CC1CC1)CC3` [Example 54, (5aS,6R,11bS)-14-(cyclopropylmethyl)-3-(2-(3-(trifluoromethyl)-1H-pyrazol-1-yl)ethyl)-2,3,4,5,6,7-hexahydro-6,11b-(epiminoethano)naphtho[1,2-d]azepine-5a,10(1H)-diol], 0.36 nM.
As for `Cc1ccn(CCN2CC[C@]34CCN(CC5CC5)[C@H](Cc5ccc(O)cc53)[C@]4(O)CC2)c1` [Example 166, (5aS,6R,11bS)-14-(cyclopropylmethyl)-3-(2-(3-methyl-1H-pyrrol-1-yl)ethyl)-2,3,4,5,6,7-hexahydro-6,11b-(epiminoethano)naphtho[1,2-d]azepine-5a,10(1H)-diol], the figure is 0.31 nM.
The same measure for `Oc1ccc2c(c1)[C@@]13CCN(CC4(c5ccccn5)CC4)CC[C@@]1(O)[C@@H](C2)N(CC1CC1)CC3` [Example 108, (5aS,6R,11bS)-14-(cyclopropylmethyl)-3-((1-(pyridin-2-yl)cyclopropyl)methyl)-2,3,4,5,6,7-hexahydro-6,11b-(epiminoethano)naphtho[1,2-d]azepine-5a,10(1H)-diol]: 0.066 nM.
`CCc1cc(CC(=O)N2CC[C@]34CCN(CC5CC5)[C@H](Cc5ccc(O)cc53)[C@]4(O)CC2)no1` [Example 191, 1-((5aS,6R,11bR)-14-(cyclopropylmethyl)-5a,10-dihydroxy-1,2,5,5a,6,7-hexahydro-6,11b-(epiminoethano)naphtho[1,2-d]azepin-3(4H)-yl)-2-(5-ethylisoxazol-3-yl)ethan-1-one] returned an EC50 of 0.48 nM.
In turn, `Cc1cc2c(cc1O)[C@@]13CCN(C(=O)Cc4cn5ccccc5n4)CC[C@@]1(O)[C@@H](C2)N(CC1CC1)CC3` [Example 314, 1-((5aS,6R,11bR)-14-(cyclopropylmethyl)-5a,10-dihydroxy-9-methyl-1,2,5,5a,6,7-hexahydro-6,11b-(epiminoethano)naphtho[1,2-d]azepin-3(4H)-yl)-2-(imidazo[1,2-a]pyridin-2-yl)ethan-1-one] gave an EC50 of 0.27 nM.
The same measure for `O=C(CCn1cc(C(F)(F)F)cn1)N1CC[C@]23CCN(CC4CC4)[C@H](Cc4ccc(O)cc42)[C@]3(O)CC1` [Example 169, 1-((5aS,6R,11bR)-14-(cyclopropylmethyl)-5a,10-dihydroxy-1,2,5,5a,6,7-hexahydro-6,11b-(epiminoethano)naphtho[1,2-d]azepin-3(4H)-yl)-3-(4-(trifluoromethyl)-1H-pyrazol-1-yl)propan-1-one]: 0.094 nM.

The values are drawn from patent US20230087342A1, “AZEPANE DERIVATIVE” (Nippon Chemiphar Co., Ltd., priority 2019, published 2023).
